Reference: the supplement of paper PMC10307832

How the values were obtained:
Test in all cases: relative viability (nuclei count vs DMSO), 5 days (fraction); higher = more cells survive
NCI-H2023 = system: NCI-H2023
Summary of the method: (§1)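 Each reported value is a median over duplicate plates. It expresses relative viability: treated-well nuclei count divided by vehicle-well nuclei count. Lung cancer cell lines in 1536-well plates were dosed by pin tool a day after seeding, alone with one drug or with a fixed anchor-drug dose plus five library-drug doses (not always all listed) in √10 steps, and nuclei were counted after 5 days.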

NCI-H2009 = system: NCI-H2009
Summary of the method: as §1

HARA = system: HARA
Summary of the method: as §1

COR-L23 = system: COR-L23
Summary of the method: as §1

SK-LU-1 = system: SK-LU-1
Summary of the method: as §1

NCI-H1793 = system: NCI-H1793
Summary of the method: as §1

A-427 = system: A-427
Summary of the method: as §1

NCI-H1734 = system: NCI-H1734
Summary of the method: as §1

HCC-15 = system: HCC-15
Summary of the method: as §1

HCC-366 = system: HCC-366
Summary of the method: as §1

HCC-78 = system: HCC-78
Summary of the method: as §1

NCI-H2228 = system: NCI-H2228
Summary of the method: as §1

NCI-H1993 = system: NCI-H1993
Summary of the method: as §1

LC-2-ad = system: LC-2-ad
Summary of the method: as §1

NCI-H1944 = system: NCI-H1944
Summary of the method: as §1

NCI-H838 = system: NCI-H838
Summary of the method: as §1

EMC-BAC-2 = system: EMC-BAC-2
Summary of the method: as §1

NCI-H23 = system: NCI-H23
Summary of the method: as §1

NCI-H2126 = system: NCI-H2126
Summary of the method: as §1

ABC-1 = system: ABC-1
Summary of the method: as §1

UMC-11 = system: UMC-11
Summary of the method: as §1

NCI-H2405 = system: NCI-H2405
Summary of the method: as §1

## O=C(O)c1ccc(-c2c[nH]c3ncc(-c4ccccc4)cc23)cc1C1CCCC1 + CS(=O)(=O)CCNCc1ccc(-c2ccc3ncnc(Nc4ccc(OCc5cccc(F)c5)c(Cl)c4)c3c2)o1 [Lapatinib] (partner 2 µM)
NCI-H2023; first compound 0.04 µM
  relative viability: 0.915
NCI-H2023; first compound 0.1265 µM
  relative viability: 0.938
NCI-H2023; first compound 0.4 µM
  relative viability: 0.779
NCI-H2023; first compound 1.265 µM
  relative viability: 0.511
NCI-H2009; first compound 0.04 µM
  relative viability: 1.06
NCI-H2009; first compound 0.1265 µM
  relative viability: 0.922
NCI-H2009; first compound 0.4 µM
  relative viability: 0.882
NCI-H2009; first compound 1.265 µM
  relative viability: 0.848
HARA; first compound 0.04 µM
  relative viability: 0.578
HARA; first compound 0.1265 µM
  relative viability: 0.925
HARA; first compound 0.4 µM
  relative viability: 0.802
HARA; first compound 1.265 µM
  relative viability: 0.716
COR-L23; first compound 0.04 µM
  relative viability: 0.89
COR-L23; first compound 0.1265 µM
  relative viability: 1.09
COR-L23; first compound 0.4 µM
  relative viability: 1.01
COR-L23; first compound 1.265 µM
  relative viability: 0.654
SK-LU-1; first compound 0.04 µM
  relative viability: 0.874
SK-LU-1; first compound 0.1265 µM
  relative viability: 0.831
SK-LU-1; first compound 0.4 µM
  relative viability: 0.771
SK-LU-1; first compound 1.265 µM
  relative viability: 0.488
NCI-H1793; first compound 0.04 µM
  relative viability: 0.897
NCI-H1793; first compound 0.1265 µM
  relative viability: 1.34
NCI-H1793; first compound 0.4 µM
  relative viability: 0.969
NCI-H1793; first compound 1.265 µM
  relative viability: 0.71
A-427; first compound 0.04 µM
  relative viability: 0.965
A-427; first compound 0.1265 µM
  relative viability: 1.06
A-427; first compound 0.4 µM
  relative viability: 0.986
A-427; first compound 1.265 µM
  relative viability: 0.935
NCI-H1734; first compound 0.04 µM
  relative viability: 1.07
NCI-H1734; first compound 0.1265 µM
  relative viability: 1.1
NCI-H1734; first compound 0.4 µM
  relative viability: 0.955
NCI-H1734; first compound 1.265 µM
  relative viability: 0.984
HCC-15; first compound 0.04 µM
  relative viability: 0.882
HCC-15; first compound 0.1265 µM
  relative viability: 0.987
HCC-15; first compound 0.4 µM
  relative viability: 0.838
HCC-15; first compound 1.265 µM
  relative viability: 0.551
HCC-366; first compound 0.04 µM
  relative viability: 1.01
HCC-366; first compound 0.1265 µM
  relative viability: 0.869
HCC-366; first compound 0.4 µM
  relative viability: 0.953
HCC-366; first compound 1.265 µM
  relative viability: 0.981
HCC-78; first compound 0.04 µM
  relative viability: 0.595
HCC-78; first compound 0.1265 µM
  relative viability: 1.25
HCC-78; first compound 0.4 µM
  relative viability: 0.979
HCC-78; first compound 1.265 µM
  relative viability: 0.64
NCI-H2228; first compound 0.04 µM
  relative viability: 1.17
NCI-H2228; first compound 0.1265 µM
  relative viability: 1.41
NCI-H2228; first compound 0.4 µM
  relative viability: 1.2
NCI-H2228; first compound 1.265 µM
  relative viability: 0.362
NCI-H1993; first compound 0.04 µM
  relative viability: 0.927
NCI-H1993; first compound 0.4 µM
  relative viability: 0.789
NCI-H1993; first compound 1.265 µM
  relative viability: 0.835
LC-2-ad; first compound 0.04 µM
  relative viability: 1
LC-2-ad; first compound 0.1265 µM
  relative viability: 1.02
LC-2-ad; first compound 0.4 µM
  relative viability: 0.904
LC-2-ad; first compound 1.265 µM
  relative viability: 0.803
NCI-H1944; first compound 0.04 µM
  relative viability: 0.695
NCI-H1944; first compound 0.1265 µM
  relative viability: 1
NCI-H1944; first compound 0.4 µM
  relative viability: 0.623
NCI-H1944; first compound 1.265 µM
  relative viability: 0.736
NCI-H838; first compound 0.04 µM
  relative viability: 0.92
NCI-H838; first compound 0.1265 µM
  relative viability: 1.4
NCI-H838; first compound 0.4 µM
  relative viability: 1.11
NCI-H838; first compound 1.265 µM
  relative viability: 0.915
EMC-BAC-2; first compound 0.04 µM
  relative viability: 0.848
EMC-BAC-2; first compound 0.1265 µM
  relative viability: 1.03
EMC-BAC-2; first compound 0.4 µM
  relative viability: 0.916
EMC-BAC-2; first compound 1.265 µM
  relative viability: 0.946
NCI-H23; first compound 0.04 µM
  relative viability: 1.12
NCI-H23; first compound 0.1265 µM
  relative viability: 0.894
NCI-H23; first compound 0.4 µM
  relative viability: 0.919
NCI-H23; first compound 1.265 µM
  relative viability: 0.752
NCI-H2126; first compound 0.04 µM
  relative viability: 0.764
NCI-H2126; first compound 0.1265 µM
  relative viability: 0.81
NCI-H2126; first compound 0.4 µM
  relative viability: 0.734
NCI-H2126; first compound 1.265 µM
  relative viability: 0.741
ABC-1; first compound 0.04 µM
  relative viability: 1.05
ABC-1; first compound 0.1265 µM
  relative viability: 1.08
ABC-1; first compound 0.4 µM
  relative viability: 1.09
ABC-1; first compound 1.265 µM
  relative viability: 1.52
UMC-11; first compound 0.04 µM
  relative viability: 0.994
UMC-11; first compound 0.1265 µM
  relative viability: 1.09
UMC-11; first compound 0.4 µM
  relative viability: 1.06
UMC-11; first compound 1.265 µM
  relative viability: 1.01
NCI-H2405; first compound 0.04 µM
  relative viability: 1.08
NCI-H2405; first compound 0.1265 µM
  relative viability: 1.34
NCI-H2405; first compound 0.4 µM
  relative viability: 0.868
NCI-H2405; first compound 1.265 µM
  relative viability: 0.867
